Assay: gradient 5% acetonitrile 3 min, to 50% in 2 min, to 85% in 15 min, held 3 min, 100 µL/min
Conditions: column: Zorbax Extend-C18 2.1 x 50 mm; eluents: water / acetonitrile, 0.1% formic acid
Method in brief: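 Retention times of pure standards were taken from adduct peaks that were selected by computer and manually inspected. Over 3 months, mixtures of ~100 molecules were run by HPLC–quadrupole time-of-flight mass spectrometry in positive and negative ionization mode. The Zorbax Extend-C18 column (2.1 × 50 mm, 1.8 μm) ran at 100 μL/min in water and acetonitrile, each containing 0.1% formic acid, with 40 μL dead volume and 900 μL dwell volume.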

Row | SMILES | RP-LC retention time [s]
1 | COc1ccc(C(=O)NCCc2cn3cccc(C)c3n2)c(OC)c1 | 551
2 | CNS(=O)(=O)c1cccnc1Nc1cccc(C(C)C)c1 | 1080
3 | Cc1ccc(-c2cn3cc(C(=O)NC(C)c4cccnc4)ccc3n2)cc1 (stereo not given) | 571
4 | CN1CCN(CCNC(=O)c2ccc3c(c2)N(C)C(=O)C2CCCCN32)CC1 (stereo not given) | 572
5 | Cc1ccc(CNC(=O)C2=C3CCCN3c3ccc(F)cc3S2(=O)=O)cc1 | 909
6 | Cc1ccc(CC(=O)Nc2ccc3nc(N4CCN(CC(=O)N(C)C)CC4)cc(C(=O)O)c3c2)cc1 | 604
7 | COC(=O)c1ccc(CN2CCN(c3cnn4cnnc4c3)CC2)cc1 | 548
8 | Cc1nc(-c2ccc(-c3noc(CNC(=O)c4ccco4)n3)cc2)cs1 | 837
9 | CCc1nn2c(CNS(=O)(=O)c3ccc(Cl)cc3C)c(-c3ccccc3)nc2s1 | 1050
10 | CCn1c(N2CCCC(C(=O)NCc3cccc(C)c3)C2)cc(=O)n(C)c1=O (stereo not given) | 824
11 | Cn1cnc2c(C(=O)NCc3ccco3)nn(-c3ccc(Cl)cc3)c2c1=O | 834
12 | COC[C@@H]1CN(S(=O)(=O)c2c(C)noc2C)C[C@H]1c1ccncc1 | 570
13 | O=C1CN(S(=O)(=O)c2ccc(Cl)s2)CC2(CCCCC2)N1Cc1ccccc1 | 1180
14 | CCN1C(=O)c2cccnc2Sc2cc(NC(=O)C3CCCCC3)ccc21 | 877
15 | COc1ccccc1N1CCN(C(=O)Cn2ncc3c(c2=O)N(C)C(=O)CS3)CC1 | 661
16 | O=C(Nc1cccn2c(C3CCC3)nnc12)c1cnccn1 | 692
17 | Cc1noc(/C=C/c2ccc(F)cc2F)c1S(=O)(=O)N1CCC(C(=O)Nc2nccs2)CC1 | 1050
18 | Cc1nc(-c2ccc(Cl)cc2)sc1CCNC(=O)c1ccco1 | 946
19 | CCn1cnc(S(=O)(=O)N2CCC(C(=O)Nc3cc(OC)ccc3OC)CC2)c1 | 728
20 | Cc1ccc(-c2nc(-c3ccc4nnn(C)c4c3)no2)cc1C | 1170

Row | SMILES | RP-LC retention time [s]
21 | COc1ccccc1-c1noc(Cn2ccn3nc(-c4ccc(Cl)cc4)cc3c2=O)n1 | 1040
22 | c1ccc(-c2nc(-c3ccncc3)no2)c(OC2CCN(CC3CC3)C2)c1 (stereo not given) | 642
23 | CN(C)c1nccnc1OC1CCN(C(=O)c2ccc(Cl)cc2)C1 (stereo not given) | 783
24 | CC(C)(C)C(=O)Nc1ccc(NC(=O)C(C)(C)C)cc1 | 838
25 | O=c1n(Cc2ccccc2)nc2ccc(S(=O)(=O)N3CCCCC3)cn12 | 910
26 | O=C(N[C@H]1C[C@@H]2C[C@H]1CN2S(=O)(=O)c1cccc2cccnc12)c1ccccc1 | 792
27 | CCOC(=O)Cn1c(=O)c2c(nc3n2CCN3c2ccc(OC)cc2)n(C)c1=O | 826
28 | Cc1noc(C2CCCCN2CC(=O)Nc2nccs2)n1 (stereo not given) | 675
29 | Cc1cc(NS(=O)(=O)c2ccc3c(c2)C(=O)N(C)c2ncccc2O3)ccc1F | 951
30 | CC(C)Oc1ccccc1CN1CC(F)(F)C[C@H]1COc1ccncc1 | 752
31 | CCc1ccccc1NC(=O)C1CCCN(c2nc3ccccc3nc2C(F)(F)F)C1 (stereo not given) | 1200
32 | COc1ccc(CNS(=O)(=O)c2ccc(-c3nnc(C4CCC4)o3)o2)cc1 | 873
33 | Cc1ccc2[nH]cc(CCN3CC(C(=O)N4CCOCC4)CC3=O)c2c1 (stereo not given) | 679
34 | COCc1cc(=O)n(CC(=O)Nc2ccc(C(C)C)cc2)c(N2CCOCC2)n1 | 960
35 | CSc1ccc(-c2nc3cnccn3c2Nc2ccc(C)cc2)cc1 | 1000
36 | CN(C)CCNC(=O)c1ccc2ccnc(N3CCN(C(=O)c4ccco4)CC3)c2c1 | 557
37 | O=C(CSc1nnc2ccc3ccccc3n12)c1ccc(Cl)cc1 | 875
38 | CC(C)(C)NC(=O)C(=O)NCC1CCN(C(=O)COc2ccccc2)CC1 | 747
39 | Cc1ccccc1S(=O)(=O)N1[C@H]2CC[C@@H]1c1cnc(-c3ccccc3)nc1C2 | 1140
40 | CCNC(=O)NCCc1cn(CC(C)C)c2ncccc12 | 631

Row | SMILES | RP-LC retention time [s]
41 | Cc1ccc(-n2nnc(-c3noc(C)n3)c2C)cc1 | 836
42 | CCOC(=O)c1ccc(NC(=O)NCc2noc3ccc(C)cc23)cc1 | 944
43 | CCOc1ccc(NC(=O)C2CCCN(c3nnc4cccc(C)n34)C2)cc1 (stereo not given) | 724
44 | O=C(NCCc1c[nH]c2ccc(Cl)cc12)c1cc2n(n1)CCCN(Cc1ccccc1)C2=O | 904
45 | CCc1noc(NC(C)=O)c1-c1ccc(C)c(S(=O)(=O)Nc2cc(OC)c(OC)c(OC)c2)c1 | 761
46 | O=C(Cc1c[nH]c2ccccc12)N1CCCN(C2CCN(CC3CC3)C2=O)CC1 (stereo not given) | 610
47 | O=C(NCc1cc(F)ccc1F)C1CCc2nc(N3CCCC3)ncc2C1 (stereo not given) | 646
48 | Cc1sc(NC(=O)c2ccc(Cl)cc2)nc1-c1ccc2c(c1)NC(=O)CO2 | 954
49 | CCn1c(C(=O)N2CCN(c3ccccn3)CC2)cc2sccc21 | 636
50 | CCc1noc(-c2ccc(-n3cnc(C(=O)NC4CCCCCC4)c3)nc2)n1 | 968
51 | Cn1cc(C(=O)NCc2nc(-c3ccccc3)no2)nn1 | 661
52 | COc1ccc(NC(=O)CSc2ccc(N3CCCC(C(=O)NC4CC4)C3)nn2)cc1Cl (stereo not given) | 624
53 | CCOc1nc2ccccc2nc1N1CCCC(C(=O)Nc2cccc(F)c2)C1 (stereo not given) | 1200
54 | CCN1C(=O)COc2ccc(-c3noc(/C=C/c4ccc(OC)cc4)n3)cc21 | 1130
55 | Fc1ccccc1N1CCN(c2ncc3c(n2)CCN(Cc2cccc(F)c2F)C3)CC1 | 826
56 | CCn1c(CCc2ccccc2NS(=O)(=O)c2cc(F)ccc2F)nc2ccccc21 | 764
57 | O=C(CCc1nnc2c3cc(-c4ccc(F)cc4)nn3ccn12)NCCc1cccs1 | 786
58 | CC1CCCCN1S(=O)(=O)c1cc(-c2nnc(C3CCCC3)o2)co1 (stereo not given) | 1060
59 | COc1cc2c(cc1CNC(=O)Cn1c(C)nc3cc4c(cc31)OCCO4)OCCCO2 | 643

Second part, the molecule after the results:

Row | RP-LC retention time [s] | SMILES
60 | 839 | CCOC(=O)c1cccc(NC2=NS(=O)(=O)c3ccccc32)c1
61 | 871 | CC(C)C(=O)N1CCCc2ccc(NC(=O)c3ccc(F)c(F)c3)cc21
62 | 999 | N#C/C(=C\c1cccnc1)c1ccc(Br)cc1
63 | 962 | CCn1c(=O)sc2cc(S(=O)(=O)N3CCC(C(=O)Nc4cccc(C)c4)CC3)ccc21
64 | 724 | CCOCc1nc(C2CCCN2C(=O)c2ccsc2)no1 (stereo not given)
65 | 701 | CCNC(=O)Nc1ccc(OCC(=O)NC(C)c2ccc(OC)cc2)nc1 (stereo not given)
66 | 1010 | Cc1ccc(Cn2nnc(C(=O)NCc3ccco3)c2-n2cccc2)cc1
67 | 622 | Cn1c(N2CCN(C(=O)c3ccccc3Cl)CC2)cc(=O)n(C)c1=O
68 | 621 | Cc1ccc(C)c(NC(=O)N2CCN(CCn3c(C(C)C)nc4cccnc43)CC2)c1
69 | 649 | CCN(CC)C(=O)c1ccc2nc(-c3ccc(C)cc3)cn2c1
70 | 794 | Cc1ccc(NS(=O)(=O)c2cc3n(c2)CCN(CC(C)C)C3=O)cc1
71 | 645 | Cc1cc(=O)n2c(-c3cccc(NC(=O)c4sc(C)nc4C)c3)csc2n1
72 | 867 | Cc1ccc(C)c(CNC(=O)c2nc(C)oc2C)c1
73 | 973 | COC(=O)c1cc(C)nc2c1c(=O)n(Cc1cccc(F)c1)c(=O)n2C
74 | 582 | CCOc1ccccc1NC(=O)N1CCC(CN2CCC(C)CC2)CC1
75 | 758 | COC(=O)c1ccc(Cl)cc1NC(=O)N1CCCn2nc(-c3cccnc3)cc2C1

Row | RP-LC retention time [s] | SMILES
76 | 768 | CCNC(=O)N1CCOc2cc(C)ccc21
77 | 1340 | COc1ccccc1Nc1nc(-c2ccc(Br)cc2)cs1
78 | 676 | Cc1[nH]c(C)c(S(=O)(=O)N2CCC(C(=O)Nc3ccc(F)cc3F)CC2)c1C(=O)N1CCCC1
79 | 682 | O=C1NC2(CCN(C(=O)Nc3ccc4c(c3)OCO4)CC2)Nc2c(Cl)cccc21
80 | 874 | O=C(NCc1cccc(Br)c1)C(=O)c1ccc[nH]1
81 | 1090 | COc1ccc(C(C)NC(=O)C2CCCN(c3nccnc3Sc3ccc(C)cc3)C2)cc1 (stereo not given)
82 | 1350 | CCOc1ccccc1NC(=O)c1cc2c(=O)n(CC(C)C)c3ccccc3n2n1
83 | 911 | CC1(C)C(=O)N(CC(=O)N2CCN(c3ccc(F)cc3)CC2)c2ccccc21
84 | 894 | CCc1nn(CC(=O)NCCc2c[nH]c3ccccc23)c(=O)c2cc3sc(C)cc3n12
85 | 1080 | COc1ccccc1-c1nc(Cc2noc(-c3cccc(F)c3)n2)c(C)o1
86 | 929 | CCC(C)NC(=O)c1c(C)sc2ccn(Cc3ccc(F)cc3)c(=O)c12 (stereo not given)
87 | 1110 | Cc1ccc(C)c(-c2nc(-c3cccc(-c4ccnn4C)c3)no2)c1
88 | 1140 | Cc1ccc(S(=O)(=O)Cc2cccc(-c3nc(-c4cccc(-c5ccnn5C)c4)no3)c2)cc1
89 | 862 | Cc1nn2c(S(=O)(=O)N3CCSCC3)c(C(C)C)nc2s1
90 | 491 | CCC(=O)Nc1cnc2c(c1)CCC2

From the METLIN SMRT retention time set (Domingo-Almenara et al. 2019)
